# Data: the METLIN SMRT retention time set (Domingo-Almenara et al. 2019)
# Experiment: gradient 5% acetonitrile 3 min, to 50% in 2 min, to 85% in 15 min, held 3 min, 100 µL/min
# Conditions: column: Zorbax Extend-C18 2.1 x 50 mm; eluents: water / acetonitrile, 0.1% formic acid
# Method in brief: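 Using water and acetonitrile that each contained 0.1% formic acid, mixtures of ~100 pure standards were separated at 100 μL/min on a Zorbax Extend-C18 column (2.1 × 50 mm, 1.8 μm). The HPLC fed a quadrupole time-of-flight mass spectrometer working in positive and negative ionization mode, with dead and dwell volumes of 40 μL and 900 μL. Data were acquired over 3 months. Retention time was read from computationally picked adduct peaks after manual inspection of each.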
row,Structure (SMILES),RP-LC retention time [s]
1,CCOc1cccc(-c2noc(-c3nnn(Cc4nc(-c5ccccc5OC)oc4C)c3C)n2)c1,1190
2,O=C(c1cn(-c2cc(N3CCSCC3)ncn2)cn1)N1CCC(Cc2ccccc2)CC1,1090
3,Cc1ccc(C(=O)N2CC(n3cc(COCC4CC4)nn3)C2)c(=O)[nH]1,595
4,COc1ccc(N2C=C(C(=O)N3CCCC3)S(=O)(=O)c3ccccc32)cc1,764
5,COc1ccc(NC(=O)c2nc(C)oc2C)c(OC)c1,913
6,O=C(CCc1c(-c2ccccc2)nc2ccccn12)Nc1cccc(F)c1,692
7,Cc1ccc(NC(=O)CN2C(=O)CN(C)C(=O)c3ccccc32)c(Br)c1,734
8,Cc1cccc(NC(=O)C2CCc3nc(N4CCOCC4)ncc3C2)c1 (configuration not stated),786
9,COc1cccc(CNC(=O)c2ccc3c(c2)N(C)C(=O)C2CCCCN32)c1 (configuration not stated),842
10,CN1CCCC2C(c3ccccc3)C(C3=NCCCC3)C(c3ccccc3)CC21 (configuration not stated),589
11,CC(C)NC(=O)N1CCC(Oc2ccccc2)C1 (configuration not stated),764
12,C=Cc1ccc(CN2CCCN(c3ncccc3-c3nc(CC)no3)CC2)cc1,722
13,COc1ccc(-c2cn3c(CC(=O)Nc4ccccc4)csc3n2)cc1OC,702
14,COc1ccc(OC)c(NC(=O)c2cc(S(=O)(=O)N3CCC(C)CC3)cn2C)c1,1060
15,COc1ccccc1NC(=O)C(=O)c1cn(CC(=O)N2CCCC2)c2ccccc12,1130
16,COc1ccc(S(=O)(=O)N2CCc3c(c(-c4nnc(-c5ccccc5)o4)nn3C)C2)cc1,909
17,O=C(NCc1ccccn1)c1ccc2c(c1)N(C(=O)c1ccc(F)cc1)CC2,653
18,O=C(Cn1cccn1)N1CCN(c2ncccn2)CC1,567
19,CNC(=O)C1CC(=O)N(c2ccc(C)cc2)C1 (configuration not stated),626
20,CCNc1nc(Nc2cc(F)c(C(=O)N3CCOCC3)cc2OC)ncc1C(F)(F)F,915
21,Cc1ccc(NC(=O)N2CCCC2c2nc(-c3cccc(F)c3)no2)cc1 (configuration not stated),1010
22,CCOCC(=O)N1CC(F)(F)C[C@H]1c1nc(C2CC2)no1,746
23,Cc1ccc(NS(=O)(=O)c2cc(-c3[nH]ncc3C(=O)N3CCCC3)oc2C)c(C)c1,746

row,Structure (SMILES),RP-LC retention time [s]
1,Cc1cc(C)cc(NC(=O)c2cn(C)nc2S(=O)(=O)N2CCSCC2)c1,1010
2,Cc1oc(-c2ccccc2)nc1Cn1ccn2nc(-c3ccc(F)cc3)cc2c1=O,1100
3,O=[N+]([O-])c1ccc(CSc2ncnc3c2ncn3[C@@H]2O[C@H](CO)[C@H](O)C2O)cc1 (some centres not stated),759
4,CCC(C)NC(=O)Cn1cccc(-c2nc(-c3ccc(Cl)cc3)no2)c1=O (configuration not stated),852
5,CC(C)NC(=O)N1CC(c2nc(-c3ccccc3)no2)C2(CCOCC2)C1 (configuration not stated),715
6,COc1ccc(OC)c(NC(=O)N2CCCC2c2nc(-c3ccccc3OC)no2)c1 (configuration not stated),906
7,CC(C)N1CCN(Cc2ccc(C(=O)NCCC3=CCCCC3)cc2)C(=O)C1=O,760
8,CCOc1ccc(-c2ccc(OCCNS(=O)(=O)c3ccccc3Cl)nn2)cc1,891
9,Cc1ccc2c(c1)N(Cc1cccc(F)c1)N=C(C(=O)N1CCC(C)CC1)S2(=O)=O,1070
10,Cc1nc(-c2cc(S(=O)(=O)NCCCN3CCCC(C)C3)c(C)s2)sc1C (configuration not stated),704
11,COc1ccccc1C1=NN(C(C)=O)C(C)(c2cccc(OC(C)=O)c2)O1 (configuration not stated),852
12,Cc1ccc(C2Cn3nnc(C(=O)NCC4CC4)c3CO2)cc1 (configuration not stated),873
13,Cc1cccc(Nc2c(-c3ccccc3)nc3cnccn23)c1C,981
14,O=C(Cn1cnc2nc3c(cc2c1=O)CCCC3)Nc1ccc(Cl)cc1F,778
15,O=C(Cn1cccc1-c1nnc(C2CC2)o1)N1CCN(c2ccccc2)CC1,821
16,O=C(CN1C(=O)CCCc2cc(S(=O)(=O)N3CCCCC3)ccc21)NCc1ccc(F)cc1,862
17,COC(=O)c1[nH]c(C)c(C(=O)CN(CC2CCCO2)C(=O)c2ccc(OC)cc2)c1C (configuration not stated),1030
18,Cc1ccc(C)c(NC(=O)N2CCC(n3c(C)nc4cccnc43)CC2)c1,638
19,O=C(Nc1nccs1)C1CCN(C(=O)c2cnn(-c3ccccc3)n2)CC1,743
20,Cc1c(Cl)cccc1S(=O)(=O)N1CCC2(CC1)OCCS2,1050
21,Cc1cccc(Sc2nccnc2N2CCC(C(=O)NC3CCCC3)CC2)c1,1040
22,COc1cccc(S(=O)(=O)N2CCC3(CC2)N(C)C(=O)CS3=O)c1 (configuration not stated),653
23,COc1ccc(Nc2nc(-c3nnn(-c4ccc(F)cc4F)c3C)ns2)cc1OC,900

row,Structure (SMILES),RP-LC retention time [s]
1,O=C(NCCN1CCCCC1)C1CCc2sc(C(=O)N3CCOCC3)cc2C1 (configuration not stated),581
2,COc1ccc(C2CC(=O)N(Cc3ccccc3)C(=O)C2)cc1OC,904
3,Cc1ccccc1NC(=O)N1CCCC(Cn2cnc3cccnc32)C1 (configuration not stated),659
4,Fc1ccc(Cl)cc1-c1nc(-c2ccc(-n3cccn3)nc2)no1,1290
5,CN1C(=O)c2ccccc2Oc2ccc(C(=O)NC3CCCCC3)cc21,891
6,O=C(Nc1ccc2c(c1)OCCO2)N1CCC(n2c(-c3ccoc3)nc3cccnc32)C1 (configuration not stated),648
7,C1CCC(C(CC2CCCCN2)C2CCCCC2)CC1 (configuration not stated),1060
8,Cc1ccc(-c2noc(Cn3ncn4nc(-c5ccc(Br)cc5)cc4c3=O)n2)cc1,1280
9,Cn1nc(-c2nc(C3CC3)no2)c2c1CCN(C(=O)c1ccc(Cl)s1)C2,928
10,CC(C)c1noc(-c2cc(=O)n(CC(=O)Nc3ccccc3F)c3ccccc23)n1,984
11,O=C(c1nc(-c2cccs2)cs1)N1CCCC1,935
12,CCC(CC)C(=O)N1CCC2(CC1)NCc1ccccc1-n1ccnc12,580
13,COc1ccc(Cl)cc1NC(=O)C1CCN(S(C)(=O)=O)c2cc(C)ccc2O1 (configuration not stated),1110
14,COc1cccc(-c2noc(C3CCCN3C(=O)Nc3ccccc3C)n2)c1 (configuration not stated),877
15,Cc1sc(NC(=O)c2ccc(Br)cc2)nc1-c1ccc2c(c1)NC(=O)C(C)O2 (configuration not stated),1040
16,O=C(Cc1cccs1)Nc1cccc(OCc2nnc(-c3ccccc3)o2)c1,905
17,O=C(NC1CCCCC1)c1cccc(Nc2c(-c3ccc(Cl)cc3)nc3cnccn23)c1,935
18,CCOc1cc(=O)n2c(c1C(=O)N1CCCCCC1)CCCCC2,703
19,CCOC(=O)c1c(C)c(CCC(=O)NCCN2CCOCC2)c(C)n1C,622
20,CCC(C)NC(=O)CSc1cc(N2CCN(c3ccc(OC)cc3)CC2)ncn1 (configuration not stated),775
21,COCCc1nncn1C1CCN(S(=O)(=O)c2ccc(Cl)c(C)c2)CC1,769
